These are literature values, as cited in US20100167988A1, “ETHOXYPHENYLMETHYL INHIBITORS OF SGLT2” (AUSPEX PHARMACEUTICALS, INC., priority 2008, published 2010).

The data set deals with multiple CYP enzymes, including CYP1A1, CYP1A2, CYP2A6, CYP2C9, CYP2D6, and CYP3A4. Particulars: recombinant CYP isoforms, in vitro.

For `CCOc1ccc(Cc2cc([C@@H]3O[C@H](CO)[C@@H](O)[C@H](O)[C@H]3O)ccc2Cl)cc1` [Dapagliflozin, (2S,3R,4R,5S,6R)-2-(3-(4-ethoxybenzyl)-4-chlorophenyl)-6-(hydroxymethyl)-tetrahydro-2H-pyran-3,4,5-triol], the turnover result is given as “low”.
